Where two headings read alike, the source gives them in different places.
How the values were obtained:
Assay type in all cases: cell-based, human
Aβ42 = Aβ42 in FAD1 iPS cell-derived nerve cells (primary/secondary screening, dose dependency); conditions: secondary screening, FAD1 iPS cell-derived nerve cells, numerical value (Aβ change rate)
Excerpt: (§1) To perform induction from iPS cells to the cerebral cortex nerve early and with high reproducibility, iPS cells introduced with human Neurogenin 2 gene (NGN2) linked to doxycycline-inducible promoter by using PiggyBac were used (FIG. 1a, FIG. 1b, FIG. 4a and FIG. 4b). IPS cells prepared from 4 patients with familial Alzheimer's disease (FAD), 2 patients with sporadic Alzheimer's disease (SAD) and 4 healthy individuals (HC) were used. The iPS cells were established by the method described in Okita K et al., Nature.
(§2) Structural formulas (those in the form of salt or halide are also described as free form) and the general names of the candidate compounds are shown in Table 1.
(§3) To further study reproducibility of the candidate drugs obtained by the primary screening, secondary screening was conducted. In addition to Aβ40, Aβ42, Aβ42/40 ratio, Aβ38, Aβ43, sAPPα, sAPPβ were also studied and each numerical value was obtained.

Aβ38 = Aβ38 in FAD1 iPS cell-derived nerve cells (secondary screening); set-up: scale not given here
Experimental: as §3

Aβ43 = Aβ43 in FAD1 iPS cell-derived nerve cells (secondary screening); set-up: scale not given here
Experimental: as §3

Aβ42/40 ratio = Aβ42/40 ratio in FAD1 iPS cell-derived nerve cells (primary/secondary screening, dose dependency); conditions: secondary screening
Excerpt: as §1, §2, §3

sAPPβ = sAPPβ in FAD1 iPS cell-derived nerve cells (secondary screening); set-up: sAPPβ: scale not given here
Experimental: as §3

sAPPα = sAPPα in FAD1 iPS cell-derived nerve cells (secondary screening); set-up: scale not given here
Experimental: as §3

[1] = secondary screening, FAD1 iPS cell-derived nerve cells

`CC(C)(C)NC[C@H](O)c1ccc(O)c(CO)c1` [compound 73, LEVALBUTEROL] was tested, and the Aβ42 (Aβ42) was 0.84, the Aβ38 (Aβ38) was 0.99 and the Aβ43 (Aβ43) was 0.91. The “Ratio Aβ42/40” value (Aβ42/40 ratio) was 0.92, the sAPPβ (sAPPβ; [1]) was 0.66 and the sAPPα (sAPPα; [1]) was 0.74.
Work on `CC(N=C(NC#N)Nc1ccncc1)C(C)(C)C` (stereo not drawn) [compound 74] yielded an Aβ42 (Aβ42) of 0.72, an Aβ38 (Aβ38) of 0.92 and an Aβ43 (Aβ43) of 0.79. The “Ratio Aβ42/40” value (Aβ42/40 ratio) was 0.84, the sAPPβ (sAPPβ; [1]) was 0.96 and the sAPPα (sAPPα; [1]) was 0.83.
`COc1ccc(CCN(C)CCCC(C#N)(c2ccc(OC)c(OC)c2)C(C)C)cc1OC` (stereo not drawn) [compound 75] was tested, and the Aβ42 (Aβ42) was 0.74, the Aβ38 (Aβ38) was 0.89 and the Aβ43 (Aβ43) was 0.75. For the same compound, the “Ratio Aβ42/40” value (Aβ42/40 ratio) was 0.91, the sAPPβ (sAPPβ; [1]) was 0.71 and the sAPPα (sAPPα; [1]) was 0.81.
With `CCCCOc1cc(C(=O)NCCN(CC)CC)c2ccccc2n1` [compound 76, DIBUCAINE] the Aβ42 (Aβ42) was 0.9, the Aβ38 (Aβ38) was 0.97 and the Aβ43 (Aβ43) was 0.98. The “Ratio Aβ42/40” value (Aβ42/40 ratio) was 0.94, the sAPPβ (sAPPβ; [1]) was 0.77 and the sAPPα (sAPPα; [1]) was 0.77.
`COc1cc(NC(C)CCCN)c2ncccc2c1` (stereo not drawn) [compound 77, PRIMAQUINE] showed an Aβ42 (Aβ42) of 0.87, an Aβ38 (Aβ38) of 1.07 and an Aβ43 (Aβ43) of 0.89. The “Ratio Aβ42/40” value (Aβ42/40 ratio) was 0.95, the sAPPβ (sAPPβ; [1]) was 0.85 and the sAPPα (sAPPα; [1]) was 0.79.
In the case of `CNC(=C[N+](=O)[O-])NCCSCc1csc(CN(C)C)n1` [compound 78, NIZATIDINE], the Aβ42 (Aβ42) is reported as 1.04, the Aβ38 (Aβ38) is reported as 1.3 and the Aβ43 (Aβ43) is reported as 1.15. The “Ratio Aβ42/40” value (Aβ42/40 ratio) was 0.98, the sAPPβ (sAPPβ; [1]) was 1.29 and the sAPPα (sAPPα; [1]) was 0.97.
`C/N=C(\NC#N)NCCSCc1nc[nH]c1C` [compound 79, CIMETIDINE] gave an Aβ42 (Aβ42) of 0.98, an Aβ38 (Aβ38) of 1.03 and an Aβ43 (Aβ43) of 0.92. For the same compound, the “Ratio Aβ42/40” value (Aβ42/40 ratio) was 1.04, the sAPPβ (sAPPβ; [1]) was 0.88 and the sAPPα (sAPPα; [1]) was 0.87.
Work on `CN(C)CCc1c[nH]c2ccc(Cn3cncn3)cc12` [compound 80, RIZATRIPTAN] yielded an Aβ42 (Aβ42) of 0.96, an Aβ38 (Aβ38) of 1.2 and an Aβ43 (Aβ43) of 1.07. The “Ratio Aβ42/40” value (Aβ42/40 ratio) was 0.85, the sAPPβ (sAPPβ; [1]) was 1.08 and the sAPPα (sAPPα; [1]) was 0.96.
Work on `COc1cc2nc(N(C)CCCNC(=O)C3CCCO3)nc(N)c2cc1OC` (stereo not drawn) [compound 81, ALFLUZOSIN] yielded an Aβ42 (Aβ42) of 0.96, an Aβ38 (Aβ38) of 1.22 and an Aβ43 (Aβ43) of 1.03. For the same compound, the “Ratio Aβ42/40” value (Aβ42/40 ratio) was 0.87, the sAPPβ (sAPPβ; [1]) was 0.97 and the sAPPα (sAPPα; [1]) was 0.9.
In the case of `CC(C)(C)NCC(O)c1ccccc1Cl` (stereo not drawn) [compound 82, TULOBUTEROL], the Aβ42 (Aβ42) is reported as 0.83, the Aβ38 (Aβ38) is reported as 1 and the Aβ43 (Aβ43) is reported as 0.84. The “Ratio Aβ42/40” value (Aβ42/40 ratio) was 0.85, the sAPPβ (sAPPβ; [1]) was 0.74 and the sAPPα (sAPPα; [1]) was 0.87.
Work on `Cc1ncc(CNC(=O)N(CCCl)N=O)c(N)n1` [compound 83, NIMUSTINE] yielded an Aβ42 (Aβ42) of 0.84, an Aβ38 (Aβ38) of 1.04 and an Aβ43 (Aβ43) of 0.89. The “Ratio Aβ42/40” value (Aβ42/40 ratio) was 0.86, the sAPPβ (sAPPβ; [1]) was 0.89 and the sAPPα (sAPPα; [1]) was 0.81.
`COc1ccc(CN2CCNCC2)c(OC)c1OC` [compound 84, TRIMETAZIDINE] showed an Aβ42 (Aβ42) of 1.01, an Aβ38 (Aβ38) of 1.04 and an Aβ43 (Aβ43) of 1.09. For the same compound, the “Ratio Aβ42/40” value (Aβ42/40 ratio) was 0.93, the sAPPβ (sAPPβ; [1]) was 1.04 and the sAPPα (sAPPα; [1]) was 1.15.
`CC(C)(C)NCC(O)c1cc(Cl)c(N)c(Cl)c1` (stereo not drawn) [compound 85, CLENBUTEROL] showed an Aβ42 (Aβ42) of 0.88, an Aβ38 (Aβ38) of 1.17 and an Aβ43 (Aβ43) of 0.94. The “Ratio Aβ42/40” value (Aβ42/40 ratio) was 0.85, the sAPPβ (sAPPβ; [1]) was 0.84 and the sAPPα (sAPPα; [1]) was 0.86.
`CCN(CC)CCNC(=O)c1cc(Br)c(N)cc1OC` [compound 86, BROMOPRIDE] was tested, and the Aβ42 (Aβ42) was 0.84, the Aβ38 (Aβ38) was 1.07 and the Aβ43 (Aβ43) was 0.9. For the same compound, the “Ratio Aβ42/40” value (Aβ42/40 ratio) was 0.84, the sAPPβ (sAPPβ; [1]) was 0.85 and the sAPPα (sAPPα; [1]) was 1.
Compound `CC(C)c1cccc(C(C)C)c1O` [compound 87, PROPOFOL] has an Aβ42 (Aβ42) of 0.88, an Aβ38 (Aβ38) of 0.99 and an Aβ43 (Aβ43) of 0.88. For the same compound, the “Ratio Aβ42/40” value (Aβ42/40 ratio) was 0.91, the sAPPβ (sAPPβ) was 1 and the sAPPα (sAPPα) was 0.94.
